Holding throughout (assay type): functional, cell-based
A short description of experiment [1]: Neuroprotective activity in C57BL/6J mouse primary neocortical neurons assessed as inhibition of spontaneous Ca2+ oscillation frequency measured for 15 mins by Fluo-4 dye based fluorescence analysis. The settings on record: Primary neocortical neuron, 0.25 h.
Experiment [2] is described as follows: Neuroprotective activity in C57BL/6J mouse primary neocortical neurons assessed as inhibition of 4-AP-induced spontaneous Ca2+ oscillation amplitude treated with compound 15 mins prior to 4-AP challenge and measured after 10 mins by Fluo-4 dye based fluorescence analysis. The settings on record: Primary neocortical neuron.
Experiment [3] in a line: Neuroprotective activity in C57BL/6J mouse primary neocortical neurons assessed as inhibition of spontaneous Ca2+ oscillation amplitude measured for 15 mins by Fluo-4 dye based fluorescence analysis. Particulars: Primary neocortical neuron, 0.25 h.
Experiment [4] in a line: Neuroprotective activity in C57BL/6J mouse primary neocortical neurons assessed as inhibition of 4-AP-induced spontaneous Ca2+ oscillation frequency treated with compound 15 mins prior to 4-AP challenge and measured after 10 mins by Fluo-4 dye based fluorescence analysis. Particulars: Primary neocortical neuron.

One may read the IC50 as the point on the concentration scale where inhibition reaches its midpoint. With `COc1cc(-c2cc3c(c(=O)o2)C[C@@]24OB(O)O[C@]5(CC[C@@]2(C)O3)C(C)(C)C=CC(=O)[C@]45C)cc(OC)c1OC`, the IC50 in experiment [1] is 15 µM; in experiment [2] it was 34 µM; in experiment [3], 16 µM; in experiment [4], 12 µM.

For the compound `COc1cc(-c2cc3c(c(=O)o2)C[C@]2(O)[C@@]4(C)C(=O)C=CC(C)(C)[C@]4(O)CC[C@@]2(C)O3)cc(OC)c1OC` [TERRITREM B], the IC50 turned out to be 8.6 µM in experiment [1], 27 µM in experiment [2], 5.4 µM in experiment [3] and 14 µM in experiment [4].

Values taken from ChEMBL document CHEMBL5226387, “A Drimane Meroterpenoid Borate as a Synchronous Ca+ Oscillation Inhibitor from the Coral-Associated Fungus Alternaria sp. ZH-15” (J Nat Prod, 2023).
